Measured values reported in article PMC5116814, “Potent, Reversible, and Specific Chemical Inhibitors of Eukaryotic Ribosome Biogenesis” (Cell, 2016).
pEC50: −log10 of the molar value. Each block holds one compound with its values, some of them ahead of it.

Key:
Format in all cases: biochemical
[1] = molecular target: T1, Mdn1 (Midasin) (Schizosaccharomyces pombe, UniProt O94248); experiment: NADH-coupled steady-state ATPase assay, dose-response (saturates at […] inhibition)
T1 construct: recombinant full-length Mdn1 (hexahistidine-tagged, insect cells)
T1 sequence (O94248 whole entry): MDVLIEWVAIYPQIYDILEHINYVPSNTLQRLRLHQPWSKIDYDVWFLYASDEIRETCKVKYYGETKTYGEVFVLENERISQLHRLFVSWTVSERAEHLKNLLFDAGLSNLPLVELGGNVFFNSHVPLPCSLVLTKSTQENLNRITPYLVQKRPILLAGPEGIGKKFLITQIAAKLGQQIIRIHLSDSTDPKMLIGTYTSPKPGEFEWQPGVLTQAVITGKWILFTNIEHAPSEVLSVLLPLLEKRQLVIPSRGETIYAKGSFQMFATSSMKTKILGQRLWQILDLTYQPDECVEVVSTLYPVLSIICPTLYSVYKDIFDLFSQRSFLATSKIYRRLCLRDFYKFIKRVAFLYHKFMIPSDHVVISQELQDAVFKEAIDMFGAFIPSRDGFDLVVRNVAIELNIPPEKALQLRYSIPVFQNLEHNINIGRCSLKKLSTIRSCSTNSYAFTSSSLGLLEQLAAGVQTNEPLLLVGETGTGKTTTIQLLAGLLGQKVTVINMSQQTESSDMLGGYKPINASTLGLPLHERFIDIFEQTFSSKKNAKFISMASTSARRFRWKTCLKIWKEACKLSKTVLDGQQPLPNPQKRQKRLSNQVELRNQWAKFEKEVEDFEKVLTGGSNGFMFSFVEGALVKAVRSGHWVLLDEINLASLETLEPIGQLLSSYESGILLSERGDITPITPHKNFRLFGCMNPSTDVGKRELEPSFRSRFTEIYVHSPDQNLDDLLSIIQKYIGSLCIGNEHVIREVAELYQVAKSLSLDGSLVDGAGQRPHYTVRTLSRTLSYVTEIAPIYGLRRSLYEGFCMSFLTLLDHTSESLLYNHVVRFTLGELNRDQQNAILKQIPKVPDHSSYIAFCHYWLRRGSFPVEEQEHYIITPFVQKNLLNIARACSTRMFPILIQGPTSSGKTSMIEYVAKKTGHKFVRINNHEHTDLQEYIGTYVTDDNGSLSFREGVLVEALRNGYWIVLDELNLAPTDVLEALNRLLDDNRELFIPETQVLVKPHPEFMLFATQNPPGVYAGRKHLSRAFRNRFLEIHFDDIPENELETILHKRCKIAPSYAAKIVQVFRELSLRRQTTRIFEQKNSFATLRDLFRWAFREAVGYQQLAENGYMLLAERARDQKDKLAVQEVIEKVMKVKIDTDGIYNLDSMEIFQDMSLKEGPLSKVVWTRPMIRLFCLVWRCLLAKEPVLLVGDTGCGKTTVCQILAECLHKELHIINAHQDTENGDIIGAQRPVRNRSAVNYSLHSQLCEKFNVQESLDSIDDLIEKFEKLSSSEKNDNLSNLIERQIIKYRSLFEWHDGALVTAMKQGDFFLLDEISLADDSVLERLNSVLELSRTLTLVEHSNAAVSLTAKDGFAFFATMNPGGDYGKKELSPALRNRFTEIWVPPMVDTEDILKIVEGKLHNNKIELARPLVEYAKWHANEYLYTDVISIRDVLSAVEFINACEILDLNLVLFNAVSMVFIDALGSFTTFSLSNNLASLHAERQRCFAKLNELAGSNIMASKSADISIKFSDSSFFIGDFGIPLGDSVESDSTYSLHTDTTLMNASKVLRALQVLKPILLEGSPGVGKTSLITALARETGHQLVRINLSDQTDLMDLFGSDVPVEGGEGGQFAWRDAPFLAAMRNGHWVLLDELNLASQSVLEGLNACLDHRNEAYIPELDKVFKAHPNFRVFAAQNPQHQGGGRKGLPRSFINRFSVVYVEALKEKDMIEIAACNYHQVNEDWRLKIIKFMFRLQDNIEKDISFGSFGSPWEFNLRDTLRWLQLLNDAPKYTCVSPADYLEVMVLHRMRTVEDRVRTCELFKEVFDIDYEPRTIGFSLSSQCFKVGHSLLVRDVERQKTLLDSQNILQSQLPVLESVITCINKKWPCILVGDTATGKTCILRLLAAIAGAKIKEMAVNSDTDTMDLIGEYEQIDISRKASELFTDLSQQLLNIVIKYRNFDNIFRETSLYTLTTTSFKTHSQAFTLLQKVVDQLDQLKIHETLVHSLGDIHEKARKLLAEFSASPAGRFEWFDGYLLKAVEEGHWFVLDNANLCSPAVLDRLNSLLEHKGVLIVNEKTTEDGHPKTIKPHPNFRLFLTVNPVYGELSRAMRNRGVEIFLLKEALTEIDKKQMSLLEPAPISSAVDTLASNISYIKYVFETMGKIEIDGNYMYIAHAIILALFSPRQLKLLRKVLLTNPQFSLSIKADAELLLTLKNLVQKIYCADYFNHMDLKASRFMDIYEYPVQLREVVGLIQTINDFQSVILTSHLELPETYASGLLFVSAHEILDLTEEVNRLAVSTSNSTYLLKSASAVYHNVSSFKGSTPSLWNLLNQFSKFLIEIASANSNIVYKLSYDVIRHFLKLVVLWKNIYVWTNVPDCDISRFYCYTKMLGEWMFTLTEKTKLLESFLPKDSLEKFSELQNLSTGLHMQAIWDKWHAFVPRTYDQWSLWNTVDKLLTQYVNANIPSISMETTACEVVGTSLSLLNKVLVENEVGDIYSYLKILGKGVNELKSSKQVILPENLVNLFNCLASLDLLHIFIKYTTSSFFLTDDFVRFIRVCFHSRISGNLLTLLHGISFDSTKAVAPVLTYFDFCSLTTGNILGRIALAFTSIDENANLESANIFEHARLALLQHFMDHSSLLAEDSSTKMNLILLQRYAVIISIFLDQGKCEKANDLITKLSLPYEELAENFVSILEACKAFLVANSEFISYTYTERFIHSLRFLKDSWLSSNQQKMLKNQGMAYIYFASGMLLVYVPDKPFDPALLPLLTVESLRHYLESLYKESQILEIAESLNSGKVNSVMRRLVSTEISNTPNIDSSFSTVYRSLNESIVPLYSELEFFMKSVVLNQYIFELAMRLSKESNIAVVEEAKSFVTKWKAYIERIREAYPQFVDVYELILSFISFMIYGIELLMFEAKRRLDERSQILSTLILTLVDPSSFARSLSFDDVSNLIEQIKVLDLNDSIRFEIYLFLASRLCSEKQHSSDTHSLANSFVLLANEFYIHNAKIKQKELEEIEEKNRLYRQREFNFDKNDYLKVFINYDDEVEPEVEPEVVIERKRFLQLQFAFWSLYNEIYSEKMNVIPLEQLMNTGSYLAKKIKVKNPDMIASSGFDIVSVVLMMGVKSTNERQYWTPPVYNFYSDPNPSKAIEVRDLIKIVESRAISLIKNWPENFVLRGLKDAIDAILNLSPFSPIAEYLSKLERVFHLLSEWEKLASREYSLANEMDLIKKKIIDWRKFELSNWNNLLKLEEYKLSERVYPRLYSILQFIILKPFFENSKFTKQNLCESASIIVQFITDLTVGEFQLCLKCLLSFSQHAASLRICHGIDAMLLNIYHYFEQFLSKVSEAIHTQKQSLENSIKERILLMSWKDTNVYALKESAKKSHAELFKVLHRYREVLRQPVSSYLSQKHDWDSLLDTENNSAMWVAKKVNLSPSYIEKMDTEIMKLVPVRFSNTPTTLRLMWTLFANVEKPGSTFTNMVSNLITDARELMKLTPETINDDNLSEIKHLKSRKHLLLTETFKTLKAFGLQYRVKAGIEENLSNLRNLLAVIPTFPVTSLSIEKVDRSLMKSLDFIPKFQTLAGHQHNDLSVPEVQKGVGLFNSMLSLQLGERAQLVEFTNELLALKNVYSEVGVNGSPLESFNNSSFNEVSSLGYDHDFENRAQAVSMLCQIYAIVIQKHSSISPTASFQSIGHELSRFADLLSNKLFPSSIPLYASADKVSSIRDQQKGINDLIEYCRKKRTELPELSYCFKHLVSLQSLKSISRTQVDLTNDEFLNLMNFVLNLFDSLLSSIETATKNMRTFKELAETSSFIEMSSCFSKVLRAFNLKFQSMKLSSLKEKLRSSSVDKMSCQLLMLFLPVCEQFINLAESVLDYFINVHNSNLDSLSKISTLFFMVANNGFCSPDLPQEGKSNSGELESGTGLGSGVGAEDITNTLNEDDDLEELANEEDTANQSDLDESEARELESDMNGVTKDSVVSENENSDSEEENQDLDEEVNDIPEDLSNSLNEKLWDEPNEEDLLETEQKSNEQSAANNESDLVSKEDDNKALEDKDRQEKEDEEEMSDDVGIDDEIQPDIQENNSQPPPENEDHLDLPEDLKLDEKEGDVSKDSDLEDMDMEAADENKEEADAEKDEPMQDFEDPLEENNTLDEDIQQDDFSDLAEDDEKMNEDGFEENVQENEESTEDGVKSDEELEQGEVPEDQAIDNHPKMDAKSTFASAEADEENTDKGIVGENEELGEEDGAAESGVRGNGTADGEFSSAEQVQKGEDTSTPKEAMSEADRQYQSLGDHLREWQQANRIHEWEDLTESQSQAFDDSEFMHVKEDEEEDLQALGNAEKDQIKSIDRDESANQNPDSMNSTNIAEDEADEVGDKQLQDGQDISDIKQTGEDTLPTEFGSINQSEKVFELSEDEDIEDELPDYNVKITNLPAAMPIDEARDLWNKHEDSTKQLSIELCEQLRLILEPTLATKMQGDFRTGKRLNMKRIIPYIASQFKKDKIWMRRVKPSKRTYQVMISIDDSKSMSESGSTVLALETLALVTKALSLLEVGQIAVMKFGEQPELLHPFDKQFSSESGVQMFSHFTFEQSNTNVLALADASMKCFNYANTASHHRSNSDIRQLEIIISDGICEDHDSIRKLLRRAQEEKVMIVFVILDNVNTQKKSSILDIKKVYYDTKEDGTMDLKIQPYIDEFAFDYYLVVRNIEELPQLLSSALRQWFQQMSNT

[2] = molecular target: T1, Mdn1 (Midasin); experiment: ATP hydrolysis by purified enzyme (radioactive and NADH-coupled ATPase assays)
[3] = molecular target: T1, Mdn1 (Midasin); experiment: NADH-coupled and radioactive ATPase assays

pEC50 [1]: ~6.52
SMILES: C=C(C)CSc1nnc2c(n1)[nH]c1cc(Br)ccc12 [compound 15, Rbin-2]

SMILES: Nc1ncnc2c1ncn2[C@@H]1O[C@H](COP(=O)(O)OP(=O)(O)OP(=O)(O)O)[C@@H](O)[C@H]1O [ATP]
ATP hydrolysis by purified enzyme (radioactive and NADH-coupled ATPase assays) [2]: ~ 1.0 s^–1 (specific activity at 1 mM MgATP)

inhibition at 1 µM [3]: ~40%
SMILES: C=C(C)CSc1nnc2c(n1)[nH]c1ccccc12 [compound 1, Rbin-1]
